{"source": "patent US20120308663A1", "about": "“LIPID NANOCAPSULES, METHOD FOR PREPARING SAME AND USE THEREOF AS A DRUG” (priority 2009, published 2012)", "key": {"rats": {"tested_on": "rats", "settings": "in rats; cited from earlier work"}, "HT-29 cells": {"tested_on": "HT-29 cells", "assay_type": "cell-based", "protocol": "The IC50 was calculated as being the concentration of SN38-LNCs, of SN38 or unloaded LNCs causing 50% cell death."}, "mice": {"tested_on": "mice", "settings": "in mice, intravenously; cited from earlier work"}}, "data": [{"molecule": "CCOCCOCCO", "note": "[Transcutol®HP, diethyleneglycol monoethyl ether]", "values": [{"measurement": "DL50", "setting": "rats", "result": "> 5", "unit": "g/kg"}]}, {"molecule": "CCc1c2c(nc3ccc(O)cc13)-c1cc3c(c(=O)n1C2)COC(=O)[C@]3(O)CC", "note": "[free SN38, 7-ethyl-10-hydroxycamptothecin]", "values": [{"measurement": "Cytotoxicity relative to CPT11 (times greater)", "setting": "HT-29 cells", "result": "approximately 250 times"}]}, {"molecule": "polyethyleneglycol-660 2-hydroxystearate [Solutol® HS 15]", "values": [{"measurement": "DL50", "setting": "mice", "result": "> 3.16", "unit": "g/kg"}]}]}
